Read-outs that look alike come from different tables or passages of the source.
Experiments:
[1] = test system: amphotropic murine leukemia virus (A-MLV); assay: Viral infection assay, control virus with A-MLV envelope; assay type: cell-based
Procedure: (§1) Production of recombinant HIV-1 expressing luciferase. […] After 48 hours, the supernatant was collected, buffered with 50 mM Hepes pH 7.4 (final concentration) and centrifuged for 5 minutes at 750×g and 4° C. The virus-containing supernatant was used directly or frozen at −80° C.
(§2) Viral infection assay. Each test compound was serially diluted in DMSO in a 96-well B&W isoplate (PerkinElmer, Boston, Mass.) using an HP D300 Digital Dispenser, to a final volume of 450 nl. DMSO was used as a control. Viruses pseudotyped with a specific Env were added to each well and incubated briefly at room temperature. Cf2Th-CD4/CCR5 cells were detached with StemPro Accutase Cell Dissociation Reagent (Invitrogen, cat #A11105-01), washed once, and 5000 cells were added to each well. […] Following incubation, the medium was aspirated and cells were lysed with 30 μl of Passive Lysis Buffer (Promega, cat #E1941). The activity of the firefly luciferase, which was used as a reporter protein in the system, was measured with a Centro LB 960 luminometer (Berthold Technologies, Oak Ridge, Tenn.). One hundred microliters of assay buffer (15 mM MgSO4, 15 mM KH2PO4/K2HPO4 pH 7.8, 1 mM ATP and 1 mM DTT) was injected to each well, followed by a 50 μl injection of 1 mM Dluciferin potassium salt (BD Pharmingen, San Jose, Calif.); luminescence was measured for 2 sec. Infection of PBMC was done as above, but 20,000-40,000 cells/well and viruses concentrated by ultracentrifugation were used. After four hours of incubation with viruses, the cells were centrifuged at 200×g for 6 minutes at 4° C., resuspended in 100 μl RPMI-PBMC medium and incubated at 37° C. for an additional 36-40 hours (total 40-44 hours). Supernatant was removed after centrifugation at 400×g for 5 minutes and cells were processed to detect luciferase activity, as described above.
The effect of 18A on viral infection was tested using recombinant HIV-1 pseudotyped with the envelope glycoproteins of different primate immunodeficiency viruses or the amphotropic murine leukemia virus (A-MLV) as a control.

[2] = test system: JR-FL and KB9 Env chimeras; assay: Viral infection assay, JR-FL/KB9 Env chimeras; assay type: cell-based, HIV-1
Procedure: as §1, §2

[3] = test system: cell-cell fusion mediated by HIV-1JR-FL and HIV-1ADS Envs; assay: Cell-cell fusion assay; assay type: cell-based
Procedure: H-JRFL#1336 (effector) and H-Fluc4 (control) cells were grown in DMEM containing 10% FBS, 100 μg/ml streptomycin, 100 units/ml penicillin, 200 μg/ml G418, 1 μg/ml puromycin and 2 μg/ml doxycycline. H-JRFL#13 cells carry an HIV-1JR-FL env gene that is induced by growing the cells in the absence of doxycycline (Tet-Off expression system). H-Fluc4 cells, which carry a firefly luciferase gene that is induced in the absence of doxycycline, were used as specificity controls. Both cell lines were derived from HeLa cells and constitutively express the tetracycline-regulated transactivator (Tet-Off expression system). […]
H-JRFL#13 or H-FLuc4 cells were washed thrice, detached with StemPro Accutase, centrifuged at 200×g for 6 minutes at 10° C. and seeded in DMEM containing 10% tetracycline-approved FBS, 100 μg/ml streptomycin, 100 units/ml penicillin, 100 μg/ml G418, 1 μg/ml puromycin and without Phenol Red. […] Firefly luciferase activity was measured using an EnVision Multilabel Plate Reader (PerkinElmer, Boston, Mass.). […]
To identify new molecules that potentially affect HIV-1 entry, a cell-cell fusion assay that mimics the entry of HIV-1 into cells was established (FIG. 1a). The assay uses a firefly luciferase (F-luc) readout to measure the fusion of HeLa effector cells that express the Envs from a primary HIV-1 strain and target cells coexpressing the CD4 and CCR5 receptors. […]

[4] = test system: HIV-1JR-FL; assay: Washout experiment, HIV-1JR-FL infection; assay type: cell-based; conditions: washing out before infection
Procedure: For washout experiments, different concentrations of 18A were incubated with the recombinant viruses at 37° C. for 20 minutes. The viruses were laid on a 20% sucrose cushion and ultracentrifuged at 30,000 RPM in an SW55 rotor for 1.5 hours at 4° C. After the supernatant was aspirated, viruses were suspended in 500-1000 μl medium and 90 μl of the virus suspension was used to infect 5000 Cf2Th-CD4/CCR5 cells (5 replicates). The cells were incubated for 48 hours and processed as described above. Sensitivity of recombinant viruses to cold inactivation was measured.

[5] = Env with KB9 gp120 and JR-FL gp41

`O=C(N/N=C/c1ccc(O)cc1)Nc1cccc2nsnc12` [Compound 18A] was tested, and the IC50 ([1]; Cf2Th-CD4/CCR5 cells, read-out: IC50 for the control A-MLV) was 56 µM, the IC50 ([1]; Example 8 table, read-out: IC50 (A-MLV)) was 56.5 µM and the sensitivity to inhibition ([2]; Env with JR-FL gp120 and KB9 gp41) was “nearly as sensitive as the parental JR-FL Env”. The “fold more sensitive than parental KB9 Env” value [2, 5] was 2 fold, the “fold resistance relative to JR-FL Env” value [2, 5] was “about 5 fold” and the sensitivity to inhibition ([2]; major variable loops of JR-FL gp120 grafted onto KB9 Env) was “nearly as sensitive to 18A inhibition as JR-FL”. For the same compound, the cell-cell fusion [3] was “specifically inhibited cell-cell fusion” and the “reversibility of inhibition of HIV-1 infection” value [4] was “reversible”.

From patent publication US20170298056A1, “SMALL MOLECULE INHIBITORS OF HIV-1 ENTRY AND METHODS OF USE THEREOF” (Dana-Farber Cancer Institute, Inc., priority 2014, published 2017)
